Data on seven compounds can be found in US11478476B2 (CONTERA PHARMA APS, priority 2014, dated 2022).

The conditions of data set [1]: cited from earlier work.
Data set [2] concerns the target T1, human recombinant 5-HT1A receptors (Homo sapiens, UniProt P08908).
T1 sequence (P08908 1-422): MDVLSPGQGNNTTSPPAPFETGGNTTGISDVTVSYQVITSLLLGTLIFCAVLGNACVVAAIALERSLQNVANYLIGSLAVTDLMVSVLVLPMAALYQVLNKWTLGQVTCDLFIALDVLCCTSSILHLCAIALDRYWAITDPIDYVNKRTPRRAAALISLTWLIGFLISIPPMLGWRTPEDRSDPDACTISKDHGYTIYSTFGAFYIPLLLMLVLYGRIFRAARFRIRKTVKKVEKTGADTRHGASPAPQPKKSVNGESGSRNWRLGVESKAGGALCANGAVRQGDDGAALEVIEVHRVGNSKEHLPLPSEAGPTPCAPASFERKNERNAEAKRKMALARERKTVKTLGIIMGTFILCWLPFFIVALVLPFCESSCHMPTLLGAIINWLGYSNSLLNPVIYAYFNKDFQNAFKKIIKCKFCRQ
The note with it: cited from earlier work; for Ki: nM printed, table head has no unit.

Data set [3] addresses T2, human recombinant dopamine D3 receptor (Homo sapiens, UniProt P35462). As to conditions: saturating concentrations of dopamine; read-out: D3 efficacy IC50 ± SEM; cited from earlier work.
For data set [4], the target named is T2, human recombinant dopamine D3 receptor. As to conditions: read-out: D3 affinity Ki ± SEM; cited from earlier work.
In data set [5] the target is T3, human recombinant dopamine D4 receptor (Homo sapiens, UniProt P21917).
T3 sequence (P21917 1-419): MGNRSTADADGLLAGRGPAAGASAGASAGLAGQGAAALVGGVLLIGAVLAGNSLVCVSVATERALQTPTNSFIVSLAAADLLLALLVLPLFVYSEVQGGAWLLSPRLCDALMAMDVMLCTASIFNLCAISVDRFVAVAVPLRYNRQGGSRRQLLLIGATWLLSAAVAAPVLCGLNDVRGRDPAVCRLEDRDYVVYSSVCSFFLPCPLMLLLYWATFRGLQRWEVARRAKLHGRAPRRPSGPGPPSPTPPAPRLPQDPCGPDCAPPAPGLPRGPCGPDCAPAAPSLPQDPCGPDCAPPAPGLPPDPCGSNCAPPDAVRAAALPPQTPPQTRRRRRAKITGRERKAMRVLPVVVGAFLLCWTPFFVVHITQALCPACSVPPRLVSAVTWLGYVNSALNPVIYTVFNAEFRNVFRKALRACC
The note with it: saturating concentrations of dopamine; read-out: D4 efficacy IC50 ± SEM; cited from earlier work.

The target of data set [6] is T4, human recombinant dopamine D2 receptor (Homo sapiens, UniProt P14416). As to conditions: read-out: D2 affinity Ki ± SEM; cited from earlier work.
T4 sequence (P14416 whole entry): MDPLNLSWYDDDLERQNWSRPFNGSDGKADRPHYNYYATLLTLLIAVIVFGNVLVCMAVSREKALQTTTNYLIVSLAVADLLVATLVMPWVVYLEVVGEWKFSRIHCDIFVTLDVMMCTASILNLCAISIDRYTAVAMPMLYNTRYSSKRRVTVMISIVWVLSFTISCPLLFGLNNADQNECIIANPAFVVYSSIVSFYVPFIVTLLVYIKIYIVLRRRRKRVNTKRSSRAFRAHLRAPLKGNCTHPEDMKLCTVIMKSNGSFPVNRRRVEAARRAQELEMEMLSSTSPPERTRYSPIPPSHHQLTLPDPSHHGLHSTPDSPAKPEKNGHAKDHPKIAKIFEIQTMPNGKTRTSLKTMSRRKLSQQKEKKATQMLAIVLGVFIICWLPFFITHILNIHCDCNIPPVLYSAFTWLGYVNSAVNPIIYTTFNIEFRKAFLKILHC
Data set [7] concerns the target T4, human recombinant dopamine D2 receptor. As to conditions: saturating concentrations of dopamine; read-out: D2 efficacy IC50 ± SEM; cited from earlier work.
Data set [8] deals with T3, human recombinant dopamine D4 receptor. The note with it: read-out: D4 affinity Ki ± SEM; cited from earlier work.
Data set [9] concerns Parkinson's disease patients. As to conditions: cited from earlier work.
For data set [10] the following is noted: after administration of radiolabeled buspirone; cited from earlier work.
For the next data set, the system named is D2 receptors. As to conditions: oral buspirone; cited from earlier work.
Data set [11] deals with L-DOPA induced dyskinesia (LID) model rats. As to the kind of experiment: L-DOPA induced AIMs in 6-OHDA lesioned LID model rats. It is filed as in vivo, rat. From the text: Animals: 80 experimentally-naïve, male, 9 weeks old Sprague-Dawley rats at body weight of 200 to 250 g arrive at the laboratory at least 1 week prior to behavioural testing. Rats were housed in groups of n=2/cage. Animals had ad libitum access to standard rodent chow and water. Animal housing and testing rooms were maintained under controlled environmental conditions and were within close proximity of each other. Animal housing rooms were on a 12-hour light-dark cycle with lights on at 6:00 AM and maintained at 70° F./21° C. (range: 68-72° F./20-22° C.) with a humidity range of 20-40%. Testing rooms were maintained at 68-72° F. with a humidity range of 20-40%. DA (dopamine)-denervating lesions were performed by unilateral injection of 6-OHDA in the ascending nigrostriatal pathway. Rats were anesthetized with pentobarbital sodium 40 mg/kg (i.p.) and positioned in a stereotactic frame. 6-OHDA was injected into the right ascending DA bundle at the following coordinates relative to bregma and dural surface: A (anterior-posterior), L (lateral), V (dorsoventral): A −1.8, L −2.0, V −8.6, tooth bar 0.0.
The neurotoxin injections were performed at a rate of 1 ul/min, and the injection cannula is left in place for an additional 2-3 min thereafter. Two weeks after surgery, contralateral full body turns were recorded over 30 min, following s.c. injection of 0.5 mg/kg of apomorphine sulfate. The animals were placed in plastic Perspex bowls (30 cm in diameter) and the rotational behavior (360° turns) is recorded by an automated rotometer for […] after the s.c. injection of 0.5 mg/kg of apomorphine sulfate. Apomorphine (0.5 mg/kg, s.c.) induced contralateral rotation in unilateral 6-OHDA lesioned rats. 73 rats with rotations ≥180/30 min, indicating >90% DA lesion in nigrostriatal pathway, were chosen as the PD model rats for chronic L-DOPA treatment.
Starting one day after the apomorphine-induced rotation test, 6-OHDA-lesioned rats were treated with daily L-DOPA (Sigma-Aldrich, Germany) (8 mg/kg plus benserazide 15 mg/kg, s.c.) for 21 days. Rats were placed individually in transparent plastic cages without bedding material and scored every 20 min following the injection of L-DOPA for the entire time course of dyskinesias (120 min). The AIMs were classified into four subtypes according to their topographic distributions such as Locomotive, Forelimb, Axial and Orolingual behaviors. The severity of each AIM subtype was assessed by using scores from 0 to 4 (1: occasional, i.e. present less than 50% of the time; 2: frequent, i.e. present more than 50% of the time; 3: continuous, but interrupted by strong sensory stimuli; 4: continuous, not interrupted by strong sensory stimuli). In this study, rats with an AIMs≥28 were considered highly dyskinetic, while rats with an AIMs<28 either low or none-dyskinetic.
After chronic L-DOPA treatment on PD rats for 21 days, 42 LID model rats (348 g˜501 g, 15 weeks old) were successfully created with the criteria of total AIM scores (Lo+Li+AX+OI)≥28 points.
AIMs ratings were performed by an investigator who was kept unaware of the pharmacological treatment administered to each rat (experimentally blinded). In order to quantify the severity of the AIMs, rats were observed individually in their standard cages every 20th minute at 20-180 min after an injection of I-DOPA. The AIM's were classified into four subtypes:
Each of the four subtypes are scored on a severity scale from 0 to 4, where 0=absent, 1=present during less than half of the observation time, 2=present for more than half of the observation time, 3=present all the time but suppressible by external stimuli, and 4=present all the time and not suppressible by external stimuli. Axial, limb and orolingual AIMs are found to be modulated in a similar way by all the tested substances.
Rats were tested for AIMs using the sum of locomotive (LO) oraxial (AX), limb (LI), and orolingual (OL) AIM scores per testing session for statistical analyses. […]

A further data set concerns dopamine D3 receptors. As to conditions: oral buspirone at therapeutically relevant doses; cited from earlier work.
The conditions of data set [12]: oral administration of buspirone, human volunteers; analyte = label (6-OH-Busp: total, both enantiomers); cited from earlier work.
Another data set has as its system PD model rats. As to the kind of experiment: Stepping test (adjusting steps) in PD model rats. The note with it: 10 mg/kg, sc; PD model rats. It is filed as in vivo, rat. The procedure:
The stepping test (Schallert et al., 1992) was performed as described by Kirik et al., 2001 with little modifications. Briefly, the rat was held by the experimenter fixing its hindlimbs with one hand and the forelimb not to be monitored with the other, while the unrestrained forepaw was touching the table. The number of adjusting steps was counted, while the rat was moved sideways along the table surface (90 cm in 5 s), in the forehand and backhand direction, for both forelimbs, and the average of the steps in the two directions is considered.
30 male PD model rats were used for adjusting steps test with the following groups: • 1. Vehicle 1+Vehicle 2 (n=7) • 2. Vehicle 1+L-DOPA (10 mg/kg, sc) (n=7) • 3. 6-OH-Busp (3 mg/kg, sc)+Vehicle 2 (n=8) • 4. 6-OH-Busp (3 mg/kg, sc)+L-DOPA (10 mg/kg, sc)
The PD rats were handled for 3 consecutive days. Vehicle 1 or 6-OH-Busp will s.c. dosed 61 min before adjusting steps test. Vehicle 2 or L-DOPA/Benserazide dosed 60 min before adjusting steps test. On testing day, the rats were held by both hind limbs and the untested forepaw. The test forepaw was placed on a flat surface and dragged in the forehand direction for 90 cm distance over 5 s. The number of adjusting steps was counted for both paws in the backhand and forehand directions of movement. […] Data were analyzed and graphed by Graph Pad Prism 6.

T2 sequence (P35462 whole entry): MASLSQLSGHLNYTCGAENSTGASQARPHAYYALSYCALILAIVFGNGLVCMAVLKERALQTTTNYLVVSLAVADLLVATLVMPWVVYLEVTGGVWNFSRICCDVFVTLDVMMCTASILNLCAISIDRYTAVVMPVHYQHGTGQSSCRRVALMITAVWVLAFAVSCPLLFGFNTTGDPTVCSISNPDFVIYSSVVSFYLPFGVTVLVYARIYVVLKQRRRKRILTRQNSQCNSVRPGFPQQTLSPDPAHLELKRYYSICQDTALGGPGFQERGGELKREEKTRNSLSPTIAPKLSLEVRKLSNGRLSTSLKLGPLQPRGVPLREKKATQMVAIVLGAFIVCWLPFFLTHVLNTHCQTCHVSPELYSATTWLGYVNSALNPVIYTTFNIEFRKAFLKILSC

As usually defined, the IC50 is the midpoint of a concentration-inhibition curve. Regarding `c1cnc(N2CCNCC2)nc1` [1-PP, 1-(2-pyrimidinyl)-piperazine], in [1] (oral dosing of buspirone in rats), the “exposure (area under the concentration-time profile) of metabolite relative to parent compound” value is listed as 49 fold. In addition, the 50% inhibitory concentration (IC50) in data set [2] was above 1 µM.

In general, Ki refers to the equilibrium dissociation constant of an inhibitor or competing ligand from its target. Take `O=C1CC2(CCC(O)C2)CC(=O)N1CCCCN1CCN(c2ncccn2)CC1` (stereo not drawn) [3-OH-Busp]: in data set [2], the IC50 was 0.652 µM and the inhibition constant (Ki) was 326 nM.

Take `O=C1CC2(CCCC2)CC(=O)N1CCCCN1CCN(c2ncc(O)cn2)CC1` [5-OH-Busp]: the IC50 was 0.93 ± 0.46 µM in data set [3], 0.928 µM in data set [2], 1.4 ± 0.82 µM in data set [5] and 2.6 ± 1.3 µM in [7]. The Ki in data set [2] is 464 nM; in data set [4], 0.261 ± 0.046 µM; in data set [6], 4.01 ± 0.792 µM; in data set [8], 0.107 ± 0.0448 µM.

In general, Cmax refers to the maximum level reached in the sampled fluid or tissue. With `O=C1CC2(CCCC2)CC(=O)N1CCCCN1CCN(c2ncccn2)CC1` [Buspirone, 8-[4-(4-pyrimidin-2-ylpiperazin-1-yl)butyl]-8-azaspiro[4.5]decane-7,9-dione, reference compound], the half-inhibitory concentration (IC50) in data set [3] was 0.44 ± 0.18 µM. In data set [1] (rats), the plasma half-life is 54 ± 24 min. Besides, in [9] (100 mg/day), the disability ratings entry is recorded as “significant worsening” and the dyskinesia result is reported as “reduced”. In addition, the “effects on Parkinson's disease or dyskinesia” value in data set [9] (10-60 mg/day) was “did not have any effects”. Also, in data set [4], the Ki is 0.098 ± 0.016 µM. Also, the half-maximal inhibitory concentration (IC50) in [5] is 0.35 ± 0.06 µM. The “unchanged buspirone as share of total radioactivity in human plasma” value in data set [10] is reported as “less than 2%”. The “in vivo blockade of D2 receptors (PET)” value with D2 receptors is reported as “did not cause blockade”. Further, the “total AIMs of LID rats at time points” value in data set [11] (Example XII, 1 mg/kg s.c., 50, 70, 90, 110, 130, 150, 170 and 190 min, vs vehicle) was “significantly attenuated”. In addition, in data set [11] (Example XII, buspirone 1 mg/kg s.c., 6-OH-Busp 0.3, 1 and 3 mg/kg s.c., vs vehicle), the “AUC of total AIMs from 10 min to 190 min” value is recorded as “decreased”. Also, the Ki in data set [8] was 0.0292 ± 0.0113 µM. Also, in the data set with dopamine D3 receptors, the “in vivo blockade of dopamine D3 receptors (PET)” value is “blocks”. Further, in [12], the AUC0-INF was 3.93 ngxh/ml and the Cmax was 1.39 ng/mL.

Turning to `CN1CC(=O)N=C1NC(=O)Nc1cccc(Cl)c1` [Fenobam, 1-(3-chlorophenyl)-3-(3-methyl-5-oxo-4H-imidazol-2-yl)urea, reference compound], the “AIMs of LID rats at any time points” value in data set [11] (Example XIV, 30 mg/kg, s.c. as printed) is “did not have significant effects”.

With `N[C@@H](Cc1ccc(O)c(O)c1)C(=O)O` [L-DOPA, 3,4-dihydroxyphenylalanine, reference compound], the “number of adjusting steps” value in the data set on PD model rats is on record as “increased”.

With `CN(C)CCc1c[nH]c2ccc(C[C@H]3COC(=O)N3)cc12` [Zolmitriptan, (S)-4-({3-[2-(dimethylamino)ethyl]-1H-indol-5-yl}methyl)-1,3-oxazolidin-2-one, reference compound], in [11] (Example XIII, 10 mg/kg s.c.), the “AIMs at any time points” value is reported as “did not have any effects”.
